Consider 1 substance from US20100310542A1, “Pharmaceutical Compositions for treating wouds and related methods” (HEALOR LTD., priority 2007, published 2010).

Assay [1] has as its system keratinocytes from the tails of adult mice. Description: cell proliferation, Rapid Cell Proliferation Kit, pre-incubation in medium B. The assay is classed as cell-based. As to conditions: pre-incubation of cells in medium B for 24 hours vs treatment parallel to medium change. On the procedure:
Medium A and B are both EMEM eagle's minimal essential medium from Biological Industries (Israel) containing 8% CHELEX™ treated fetal bovine serum. CHELEX™ is a strong chelator which binds free Ca^2+ and Mg^2+ ions to prevent these ions from being bioavailable to the cultured cells. […] The influence of pre-incubation of keratinocytes in medium B on the effects of Insulin and Insulin+PKCα inhibitor on cell proliferation in vitro was evaluated. Cultures of 5 day old, confluent keratinocytes from the tails of adult mice (7-10 months up to 2 years) were allowed to proliferate in vitro. After 5 days in MEM (medium A), the growth medium was changed to medium B (described above). Parallel to the medium changing or 24 hours following it, cells were treated with Insulin or with Insulin+PKCα inhibitor. The proliferation rate of the cells was measured with the commercially available Rapid Cell Proliferation Kit (Cat. No. QIA127; Calbiochem). The Experiment was carried out in hexaplicate. Results are presented as percent of untreated cells (control). […] Cultures of 5 day old, confluent keratinocytes prepared from the tails of adult mice (7-10 months up to 2 years) were subjected to proliferation assays utilizing a commercially available Rapid Cell Proliferation Kit (Cat. No. QIA127; Calbiochem). After 5 days in MEM, the growth medium was changed to medium B as described above. […]

The test system of assay [2] is full thickness skin incisions. Nature of the assay: incision wound healing in mice, percent of healed wounds. In kind it is in vivo, C57BL/6J mice. As to conditions: agent alone, all formulations (A-C); daily, 7 days; vs groups treated with formulations alone. On the procedure:
In vivo incision wound generation and inducement of inflammation: Full thickness (20 mm long) skin incisions were performed on the upper back of anesthetized C57BL/6J mice (6 mice per group). […] the incision, wounds were treated daily with insulin (10^−6 M; 0.1 units/ml); pseudosubstrate PKCα peptide, 1 μM (PKCα inhibitor); or Insulin+PKCα inhibitor (Myr-pseudosubstrate PKCα peptide, 1 μM and insulin 0.1 units) applied directly on the wounds in the various formulations (Formulations A-C) as described above. After 7 days, wounds were excised and the percentage of healed wounds was evaluated by examining the morphology and histology of the wounds. Results are presented as percent of healed wounds relative to the total number of wounds per group. […] Full thickness (20 mm long) skin incisions were performed on the upper back of anesthetized C57BL/6J mice (6 mice per group). […] After 7 days, wounds were excised and the percentage of healed wounds was evaluated by examining the morphology and histology of the wounds. […]

Assay [3] concerns primary murine keratinocytes. Nature of the assay: in vitro scratch assay, wound closure with insulin in Formulation C and D. As to conditions: insulin 0.1 units/ml, 48 hours. In kind it is cell-based. On the procedure: Murine keratinocytes were isolated and cultured as described above. After five days, confluent keratinocytes were subjected in vitro scratch assays to follow wound healing. Following wound formation Insulin (insulin 10^−6 M; 0.1 units/ml) was added to the cell cultures in the various formulations (Formulation C and D) described above. Wound closure was followed for 48 hours. This experiment was carried out in triplicate. Wound closure is presented as the percent of closure following 48 hours of treatment in FIG. 6B.
Cultures of 5 day old, confluent keratinocytes were subjected to in vitro scratch assays and wound healing was examined. Following wound formation, Insulin (10^−6 M; 0.1 units/ml) was added to cell cultures in the various formulations (Formulation C and D) as described above. Wound closure was followed for 48 hours. Experiments were carried out in triplicate. (A) Photographs of representative cell culture dishes are presented. (B) Wound closure is presented as percent of closure following 48 hours of treatment. (C) Proliferation assays were performed on cultured cells in the wound using the thymidine incorporation proliferation assay described above.

The test system of assay [4] is primary murine keratinocytes. Description: cell proliferation by [3H]thymidine incorporation. The note with it: insulin 0.1 units/ml. The assay is classed as cell-based. The protocol:
Cell proliferation: Cell proliferation was measured by [^3H]thymidine incorporation in 6 well plates. Cells were pulsed with [^3H]thymidine (3 μCi/ml) for 1 h. After incubation, cells were washed five times with PBS and 5% TCA was added into each well for 1 h. The solution was removed and cells were solubilized in 1 M NaOH. The labeled thymidine incorporated into cells was counted in a ^3H-window of TRI-CARB™ liquid scintillation counter.
Next, proliferation of cultured cells in the wound was evaluated utilizing thymidine incorporation (FIG. 6C). Cell proliferation was measured by [^3H]thymidine incorporation in 6 well plates. Cells were placed in […] and pulsed with [^3H]thymidine (3 μCi/ml) for 1 h. After incubation, cells were washed five times with PBS and 5% TCA was added to each well for 1 h. This solution was then removed and cells were solubilized in 1 M NaOH. The labeled thymidine incorporated into the cells was counted in the ^3H-window of a liquid scintillation counter. As shown in FIGS. 6A-C the addition of KCl changed insulin induced wound closure and cell proliferation.
Cultures of 5 day old, confluent keratinocytes were subjected to in vitro scratch assays and wound healing was examined. Following wound formation, Insulin (10^−6 M; 0.1 units/ml) was added to cell cultures in the various formulations (Formulation C and D) as described above. […]

The mark [5] stands for this setting: Formulation D (Tris + KCl 0.4 mg/ml).

As to “Insulin: human recombinant insulin, identified as insulin, USP insulin or Ins USP”, in assay [1], the “effect on cell proliferation (percent of untreated cells)” value was “enhances the effects”. In addition, the “healing of wounds (percent of healed wounds)” value in assay [2] was “did not promote wound healing efficacy”. For the same substance, the “wound closure in vitro” value in assay [3] (Formulation C (Tris)) was “inhibited insulin induced wound closure”; in assay [3] (setting [5]), “induced partial wound closure”. Also, the “cell proliferation (thymidine incorporation)” value in assay [4] (Formulation C (Tris)) is “inhibited insulin induced wound closure and cell proliferation”; in assay [4] (setting [5]), “induced partial wound closure and cell proliferation”.
